Experimental data as given in ChEMBL document CHEMBL3507680, “University of Dundee, Gates Library screen for HepG2 cell viability”.

Assay: Human HepG2 cell viability assay in 384 well format
Assay type: toxicity, cell-based
Parameters: dose 125 nL, time 70.5 hour; cytotoxicity at 70.5 h: concentration not given beside the values
Settings: HepG2 cells, read-out: Inhibition

## c1cc(CN2C[C@@H]3OCCN(CC4CCCO4)[C@@H]3C2)co1 (stereo partly drawn)
  cytotoxicity at 70.5 h: -10.8%

## CCS(=O)(=O)N1CCC2(CN(c3cc(OC)ncn3)C2)C1
  cytotoxicity at 70.5 h: 12.1%

## COc1cccc(N2CC3(CCN(c4ccncn4)C3)CC2=O)c1 (stereo not drawn)
  cytotoxicity at 70.5 h: 14.6%

## Cc1ccoc1C(=O)N1CCCc2c(c(=O)n(C)n2C)C1
  cytotoxicity at 70.5 h: 11.9%

## Cc1ccc(C(=O)N2CCCc3c(c(=O)n(C)n3C)C2)o1
  cytotoxicity at 70.5 h: 11.7%

## Cc1cc(C(=O)N2C[C@@H]3CCCO[C@@H]3[C@H](N3CCOCC3)C2)c(C)[nH]1
  cytotoxicity at 70.5 h: -12.4%

## CC(C)n1cnc(C2CN(C)c3ccc(C(=O)NCC4CC4)cc32)n1 (stereo not drawn)
  cytotoxicity at 70.5 h: -3.88%

## c1cc(CN2CCc3nc(N4CCOCC4)nc(NC4CC4)c3C2)co1
  cytotoxicity at 70.5 h: -10.6%

## CS(=O)(=O)N1CCc2ccc(=O)n(CC3CC3)c2CC1
  cytotoxicity at 70.5 h: -7.85%

## COc1cccc(N2CC3(CCN(c4ccc(C)nn4)C3)CC2=O)c1 (stereo not drawn)
  cytotoxicity at 70.5 h: -2.78%

## CN(C)C(=O)CN1C[C@H]2CCN(C(=O)c3ccncc3)CC[C@H]2S1(=O)=O
  cytotoxicity at 70.5 h: -3.99%

## CC(C)CC(=O)N1CC[C@@H]2CN(CC(=O)N(C)C)S(=O)(=O)[C@@H]2CC1
  cytotoxicity at 70.5 h: 1.05%

## CCS(=O)(=O)N1CCc2ccc(=O)n(CC3CC3)c2CC1
  cytotoxicity at 70.5 h: -9.39%

## CN(Cc1ccccc1)CC1CC2(CO1)CN(Cc1nccs1)C2 (stereo not drawn)
  cytotoxicity at 70.5 h: -6.93%

## Cc1noc(C)c1C(=O)N1C[C@@H]2CCCO[C@@H]2[C@H](N(C)C)C1
  cytotoxicity at 70.5 h: -8.14%

## COCCN1CCC2(CC1)CC(OCC1CC1)c1ccc(C)cc12 (stereo not drawn)
  cytotoxicity at 70.5 h: 5.78%

## Cc1cc(C(=O)N2C[C@@H]3CCCO[C@@H]3[C@H](N(C)C(C)C)C2)c(C)[nH]1
  cytotoxicity at 70.5 h: -6.48%

## Cc1cnc(N2CCCn3c(nnc3Cn3cccn3)C2)nc1
  cytotoxicity at 70.5 h: 10.6%

## CCn1cc2c(n1)CN(S(=O)(=O)Cc1ccccc1)CC2COC (stereo not drawn)
  cytotoxicity at 70.5 h: 11.6%

## O=C(Cc1ccsc1)NC1CCc2c(ccc(=O)n2CC2CC2)C1 (stereo not drawn)
  cytotoxicity at 70.5 h: 12%

## COCCC(=O)N1CC[C@@H](N2CCN(C)CC2)[C@@H]1Cc1ccccc1
  cytotoxicity at 70.5 h: -1.48%

## c1cnn([C@@H]2CN(Cc3nccs3)[C@@H]3CCCO[C@@H]32)c1
  cytotoxicity at 70.5 h: -6.1%

## Cc1noc(C[C@@H]2COC[C@H]3CN(S(=O)(=O)C4CC4)C[C@@H]23)n1
  cytotoxicity at 70.5 h: -5.01%

## Cc1noc(C[C@@H]2COC[C@H]3CN(S(C)(=O)=O)C[C@@H]23)n1
  cytotoxicity at 70.5 h: -5.3%

## CCOCc1cncc2c1CCN(S(=O)(=O)c1ccc(C)cc1)C2
  cytotoxicity at 70.5 h: -2.29%

## O=C(c1ncn2c1CNS(=O)(=O)c1ccccc1-2)N1CCCCCC1
  cytotoxicity at 70.5 h: 0.0876%

## O=C(c1ncn2c1CNS(=O)(=O)c1ccccc1-2)N1CC=CC1
  cytotoxicity at 70.5 h: 1.87%

## CO[C@@H]1CC[C@H]2[C@H]1OCCN2C(=O)C1CCOCC1
  cytotoxicity at 70.5 h: -15%

## CCN1CC2(CC1=O)CN(Cc1ccoc1)CCN(C(=O)C(C)C)C2 (stereo not drawn)
  cytotoxicity at 70.5 h: -20.2%

## CCOCC1CN(Cc2ccc(F)cc2)Cc2nn(CC3CC3)cc21 (stereo not drawn)
  cytotoxicity at 70.5 h: -17.2%

## CC(=O)N1CC[C@@]2(C(=O)Nc3ccccc3)CCN(S(C)(=O)=O)CC[C@@H]12
  cytotoxicity at 70.5 h: -1.82%

## CC(C)NC(=O)N1CCN(C(=O)C(C)C)CC2(CC(=O)N(C)C2)C1 (stereo not drawn)
  cytotoxicity at 70.5 h: 7.84%

## Cc1noc([C@H]2COC[C@H]3CN(C(=O)Cc4ccccc4F)C[C@H]32)n1
  cytotoxicity at 70.5 h: -17%

## CCOCC1COCCC12CCN(C(=O)CCOC)CC2 (stereo not drawn)
  cytotoxicity at 70.5 h: -17.1%

## COCC1COCCC12CCN(C(=O)Cc1cccc(OC)c1)CC2 (stereo not drawn)
  cytotoxicity at 70.5 h: -11.4%

## COCc1cnc2n1CCN(C(=O)C1=CCCC1)C2C (stereo not drawn)
  cytotoxicity at 70.5 h: -14.6%

## CCCS(=O)(=O)N1CC[C@H]2O[C@@H](c3nc(C)no3)CC[C@H]21
  cytotoxicity at 70.5 h: -21.7%

## CCS(=O)(=O)N1CCC2(COCc3cnc(N4CCOCC4)nc32)C1 (stereo not drawn)
  cytotoxicity at 70.5 h: -6.84%

## CC(C)NC(=O)N1CCC2(COCc3cnc(N4CCOCC4)nc32)C1 (stereo not drawn)
  cytotoxicity at 70.5 h: 2.23%

## O=C(c1cnccn1)N1CCN(CC2CC2)c2ncccc2C1
  cytotoxicity at 70.5 h: 5.88%

## Cc1noc([C@H]2COC[C@H]3CN(C(=O)Cc4cccc(F)c4)C[C@H]32)n1
  cytotoxicity at 70.5 h: -16.4%

## CN(C)C(=O)C1OC2(CCN(C(=O)c3ccco3)CC2)c2ccccc21 (stereo not drawn)
  cytotoxicity at 70.5 h: -16.7%

## Cc1noc([C@@H]2CC[C@@H]3[C@@H](CCN3S(=O)(=O)c3ccccc3)O2)n1
  cytotoxicity at 70.5 h: -14.9%

## Cc1nc(N2CCCC2)nc2c1CCN(C(=O)C1CCC1)CC2
  cytotoxicity at 70.5 h: -12.5%

## COc1ncccc1C(=O)N1CC[C@H]2C[C@@H](c3noc(C)n3)O[C@@H]2C1
  cytotoxicity at 70.5 h: -8.55%

## Cn1cc(CN2CCC3(CC2)COC(COc2ccccn2)C3)cn1 (stereo not drawn)
  cytotoxicity at 70.5 h: -14.7%

## CC(C)NC(=O)C1CN(C(=O)CCc2ccccc2)CC12CCOCC2 (stereo not drawn)
  cytotoxicity at 70.5 h: 44.3%

## O=C(Nc1ccccc1)[C@H]1C[C@@H]2CN(S(=O)(=O)C3CC3)C[C@H]1O2
  cytotoxicity at 70.5 h: -14.4%

## O=C(c1ccco1)N1CC[C@H]2C[C@@H](c3nccs3)O[C@@H]2C1
  cytotoxicity at 70.5 h: -1.13%

## CC(C)CS(=O)(=O)N1C[C@H]2C[C@H](C(=O)Nc3cccnc3)[C@@H](C1)O2
  cytotoxicity at 70.5 h: -6.34%

## COCCNC(=O)[C@@H]1CCO[C@@H]2CCN(Cc3cnn(C)c3)C[C@@H]21
  cytotoxicity at 70.5 h: -11.1%

## Cn1cc(CN2CC[C@H]3OCC[C@@H](C(=O)NCc4ccco4)[C@@H]3C2)cn1
  cytotoxicity at 70.5 h: -8%

## Cn1cc(CN2CCc3onc(COCC4CC4)c3C2)cn1
  cytotoxicity at 70.5 h: -12.8%

## O=C(N[C@@H]1CN(Cc2ccccn2)[C@@H]2COC[C@@H]21)C1CCC1
  cytotoxicity at 70.5 h: -1.02%

## O=C(c1c[nH]cn1)N1CCC(F)(F)C2(CCN(c3ncccn3)C2)C1 (stereo not drawn)
  cytotoxicity at 70.5 h: -5.46%

## Cc1nc(CN2C[C@@H](NC(=O)C3CCC3)[C@H]3COC[C@H]32)cs1
  cytotoxicity at 70.5 h: -5.49%

## COCCN1CCCC12CCN(c1ncccn1)CC2
  cytotoxicity at 70.5 h: -14.3%

## CCN1C(=O)[C@H]2CN(CC(C)C)C[C@H]2C12CCN(S(C)(=O)=O)CC2
  cytotoxicity at 70.5 h: -6.33%

## CN1CCN(c2ncnc3c2CCN(c2ncc(F)cn2)CC3)CC1
  cytotoxicity at 70.5 h: -1.02%

## Cn1cncc1CN1CCC2(CCCN2c2ncccn2)CC1
  cytotoxicity at 70.5 h: -8.23%

## CCn1cc2c(n1)CN(S(=O)(=O)c1cccnc1)CC2COC (stereo not drawn)
  cytotoxicity at 70.5 h: 1.06%

## c1csc(CN2C[C@@H](n3cccn3)[C@H]3OCCC[C@H]32)c1
  cytotoxicity at 70.5 h: -3.02%

## O=C(NCC1CC[C@@H]2[C@@H]1OCCN2Cc1cccs1)c1ccco1 (stereo partly drawn)
  cytotoxicity at 70.5 h: -0.679%

## COCCN1CCC2(CC1)CN(CCn1cccn1)C(=O)CO2
  cytotoxicity at 70.5 h: 1.22%

## CC(C)CC(=O)N1CC[C@H]2N(C)CC[C@@]2(C(=O)Nc2ccccc2)CC1
  cytotoxicity at 70.5 h: 36.5%

## CCN1CC2(CC1=O)CN(Cc1ccco1)CCN(C(=O)C(C)C)C2 (stereo not drawn)
  cytotoxicity at 70.5 h: 7.56%

## O=C(NCc1cccs1)[C@@H]1CC[C@@H]2[C@@H](CCN2CC2CCC2)O1
  cytotoxicity at 70.5 h: -17.4%

## Cn1cccc1C(=O)NC[C@]12COC[C@H]1CN(Cc1nccs1)C2
  cytotoxicity at 70.5 h: -15.1%

## O=C(NC[C@]12COC[C@H]1CN(CC1CCOCC1)C2)c1ccccc1
  cytotoxicity at 70.5 h: 1.78%

## COc1ccccc1CN1CC[C@]2(C[C@@H](OC)CO2)C1
  cytotoxicity at 70.5 h: -4.33%

## O=C(NCc1cccs1)[C@H]1CC[C@@H]2[C@@H](CCN2C2CCC2)O1
  cytotoxicity at 70.5 h: -3.48%

## CCn1ncc2c1CN(C(=O)Cc1cccs1)CC2COC (stereo not drawn)
  cytotoxicity at 70.5 h: -7.83%

## O=C(NC[C@]12COC[C@H]1CN(Cc1nccs1)C2)c1cscn1
  cytotoxicity at 70.5 h: -3.54%

## CCC1=N[C@@]2(CC[C@@H]3CN(CC4CC4)C[C@@H]32)C(=O)N1CC1CC1
  cytotoxicity at 70.5 h: -20.5%

## CCCS(=O)(=O)N1CCOC2(CCCN(c3ccccn3)C2)C1 (stereo not drawn)
  cytotoxicity at 70.5 h: -13.3%

## CC(C)CCN1C[C@H]2C[C@H](C(=O)Nc3ccccc3)[C@@H](C1)O2
  cytotoxicity at 70.5 h: -21.4%

## O=C(Cc1ccccc1)N1CC[C@H]2[C@@H]1CCC(=O)N2Cc1ccncc1
  cytotoxicity at 70.5 h: 1.86%

## Cc1ccc(CN2CCC3(CC2)CN(c2cnn(C)c2)C(=O)CO3)o1
  cytotoxicity at 70.5 h: -9.82%

## O=C(CC1CC1)N1CC[C@H]2[C@@H]1CCC(=O)N2Cc1ccncc1
  cytotoxicity at 70.5 h: -9.8%

## COc1ncccc1C(=O)N1CC[C@H]2C[C@H](c3nnc(C)[nH]3)O[C@@H]2C1
  cytotoxicity at 70.5 h: -14.1%

## O=S(=O)(C1CC1)N1C[C@H]2CCC[C@@]2(COCc2ccccn2)C1
  cytotoxicity at 70.5 h: -14.3%

## Cc1ccc(C(=O)N2CCOCC3(CCN(C4CCOCC4)C3)C2)o1 (stereo not drawn)
  cytotoxicity at 70.5 h: -13.2%

## Cc1noc(C)c1CN1CCc2ncc(CN3CCCC3)n2CC1
  cytotoxicity at 70.5 h: -5.92%

## Cc1cccc(CN2C[C@@H](NC(=O)C3CC3)[C@H]3OCCC[C@H]32)n1
  cytotoxicity at 70.5 h: 4.63%

## CC(=O)N1CCCC1c1nnn2cc(NCc3cccnc3)ccc12 (stereo not drawn)
  cytotoxicity at 70.5 h: -18.3%

## CN(C[C@@H]1CCC[C@@H]2CN(Cc3cccnc3)C[C@@H]21)C1CC1
  cytotoxicity at 70.5 h: -1.32%

## CO[C@@H]1CCN(S(=O)(=O)N(C)C)[C@@H]2CN(Cc3ccncc3)C[C@@H]21
  cytotoxicity at 70.5 h: -1.72%

## CCN1CC2(CC1=O)CN(Cc1ccncc1)CCN(C(=O)C(C)C)C2 (stereo not drawn)
  cytotoxicity at 70.5 h: 28.2%

## Fc1cccnc1O[C@H]1CN(Cc2ccoc2)[C@@H]2CCCO[C@H]12
  cytotoxicity at 70.5 h: -4.66%

## O=C(C[C@@H]1COC[C@H]2CN(Cc3cccnc3)C[C@@H]12)N1CCOCC1
  cytotoxicity at 70.5 h: 29.4%

## O=C(C[C@@H]1COC[C@H]2CN(Cc3ccccn3)C[C@@H]12)N1CCOCC1
  cytotoxicity at 70.5 h: -2.94%

## Fc1cccnc1O[C@@H]1CN(Cc2ccccn2)[C@@H]2CCCO[C@@H]21
  cytotoxicity at 70.5 h: -10.3%

## O=S(=O)(c1cccnc1)N1C[C@H]2CCC[C@@]2(COc2ccccn2)C1
  cytotoxicity at 70.5 h: -7.2%

## COCCN1C[C@H]2[C@@H](C1)N(Cc1cnn(C)c1)CC[C@H]2OC
  cytotoxicity at 70.5 h: -11.3%

## Cc1nc(CN2CCN(CC3CCOC3)Cc3cccnc32)cs1 (stereo not drawn)
  cytotoxicity at 70.5 h: -8.4%

## CCN(CC)[C@@H]1CN(Cc2nccn2C)[C@@H]2CCCO[C@H]12
  cytotoxicity at 70.5 h: -3.21%

## CO[C@H]1CCN(Cc2cnn(C)c2)[C@@H]2CN(Cc3ccncc3)C[C@H]12
  cytotoxicity at 70.5 h: -6.62%

## CO[C@@H]1CCN(Cc2cnn(C)c2)[C@@H]2CN(Cc3cccnc3)C[C@@H]21
  cytotoxicity at 70.5 h: -9.6%
